The values that follow come from PubChem BioAssay AID1259332 (Broad Institute, 2017).

The source made the active and inactive calls. How the calls were made is not given here.

One test is described as follows: CD40 pathway inhibition in B cells – B cell lineage, dose response (AID 1259332).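 Further: cells stimulated with CD40 ligand tCD40L; 0% = neutral control wells and -100% = positive control wells.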 The conditions noted are these: B cell line, CD40 signaling inhibition reporter; at 0.35 µM (top of the series).
Consider `CCc1cnc(N2[C@H](C#N)[C@H](c3ccc(C#CCC4CCCC4)cc3)[C@@H]2CO)s1`, for which the activity change, negative = inhibition was 4.84% (inactive).

The same test, now with this note: B cell line, CD40 signaling inhibition reporter; at 0.38 µM (top of the series).
With `c1ccc(CCSc2nccn2-c2ccccc2)cc1`, the activity change, negative = inhibition was 36.4% (inactive).

Staying with this test, now noted: B cell line, CD40 signaling inhibition reporter; at 1.1 µM (top of the series).
Regarding `CC(C)(C)[S@](=O)N1Cc2cc(C(=O)NCC(F)(F)F)nc(-c3cccc(-c4cccc(F)c4)c3)c2[C@@H]1CCO`, the activity change, negative = inhibition was 9.18% (inactive).
As for `C[C@@H]1CCCCO[C@@H](CN(C)S(=O)(=O)c2ccc(Cl)cc2)[C@H](C)CN([C@H](C)CO)C(=O)c2cc(NC(=O)Nc3ccc(C(F)(F)F)cc3)ccc2O1`, the activity change, negative = inhibition was 1.11% (inactive).
Take `COc1ccc(S(=O)(=O)N(C)C[C@H]2Oc3ccc(NC(=O)Nc4ccc(C(F)(F)F)cc4)cc3C(=O)N([C@@H](C)CO)C[C@@H]2C)cc1`: the activity change, negative = inhibition is 11.5% (inactive).
On the same count and under the same terms, with `O=C1C(=NO)CCc2ccccc21` the figure was 21.3% (inactive).
On the same count and under the same terms, with `CCc1cnc(N2[C@H](C#N)[C@@H](c3ccccc3C3=CCCC3)[C@@H]2CO)s1` the figure was 18.2% (inactive).

Staying with this test, now noted: B cell line, CD40 signaling inhibition reporter; at 3 µM (top of the series).
Turning to `O=C(Nc1ccccc1F)N1C[C@@H]2N[C@H](C1)C2c1ccc(/C=C/c2ccccc2)cc1` (stereo partly drawn), the activity change, negative = inhibition was 2.39% (inactive).

Still in this test, the particulars now being: B cell line, CD40 signaling inhibition reporter; at 3.5 µM (top of the series).
Regarding `C[C@@H]1CCCCO[C@@H](CN(C)C(=O)C2CCCCC2)[C@@H](C)CN([C@H](C)CO)C(=O)c2cc(NS(=O)(=O)c3ccccc3)ccc2O1`, the activity change, negative = inhibition was -0.82% (inactive).
With `C[C@H](CO)N1C[C@H](C)[C@H](CN(C)CC2CCCCC2)Oc2ccc(NC(=O)Nc3ccc(C(F)(F)F)cc3)cc2C1=O`, the activity change, negative = inhibition is 4.59% (inactive).
On the same count and under the same terms, with `N#C[C@H]1[C@@H](c2ccc(C#CC3CCCCC3)cc2)[C@@H](CO)N1C(=O)Nc1ccc(F)cc1` the figure was 2.75% (inactive); with `C[C@@H]1CN([C@H](C)CO)C(=O)Cc2cc(NC(=O)Cc3cn(C)c4ccccc34)ccc2O[C@H]1CN(C)Cc1ccc(C(F)(F)F)cc1`, 0.703% (inactive).
The same measure, in the same setting: as for `COc1ccc(CN2CC3(CN(C(=O)Cc4ccccc4)C3)c3c([nH]c4cc(OC)ccc34)[C@H]2CO)cc1`, the figure is -3.26% (inactive); as for `O=C(CCN1CCC(c2ccccc2)C1)c1ccc2c(c1)OCCO2` (stereo not drawn), 26.9% (inactive); as for `N#C[C@H]1[C@H](c2ccc(C#CC3CCCCC3)cc2)[C@H](CO)N1C(=O)Nc1ccc(F)cc1`, -7.18% (inactive).
On the same count and under the same terms, as for `COc1ccc(-c2cnc3c(c2)C(=O)N([C@H](C)CO)C[C@@H](C)[C@@H](CN(C)C(=O)Nc2c(C)noc2C)O3)cc1`, the figure is -1.25% (inactive); as for `N#C[C@H]1[C@H](c2ccc(C#CC3CCCCC3)cc2)[C@@H](CO)N1C(=O)Nc1ccc(F)cc1`, -2.23% (inactive).
Consider `COc1cccc(S(=O)(=O)N(C)C[C@H]2OCc3ccccc3-c3c(n(C)c4ccccc34)C(=O)N([C@@H](C)CO)C[C@H]2C)c1`, for which the activity change, negative = inhibition was -5.41% (inactive).
Same read-out and setting: with `CCCNC(=O)N1[C@H](CO)[C@H](c2ccc(/C=C/c3ccccc3)cc2)[C@@H]1C#N` the figure was 5% (inactive).
Turning to `N#C[C@@H]1[C@@H](c2ccccc2)[C@H](CO)N1C(=O)CN1CCOCC1`, the activity change, negative = inhibition is -5.63% (inactive).
The same measure, in the same setting: as for `Cc1noc(C)c1NC(=O)N(C)C[C@@H]1OCCCC[C@@H](C)Oc2ccc(NC(=O)Nc3ccc(C(F)(F)F)cc3)cc2C(=O)N([C@H](C)CO)C[C@H]1C`, the figure is -11.7% (inactive).
The same measure, in the same setting: as for `C[C@]12CC[C@H](O)C[C@H]1CC[C@@H]1[C@@H]2CC[C@]2(C)[C@@H](c3ccc(=O)oc3)CC[C@]12O`, the figure is 1.4% (inactive); as for `COc1ccc(Cl)cc1NC(=O)Nc1cc(C)nc2ccccc12`, -7.79% (inactive).
Consider `N#Cc1cccc(-c2ccc([C@@H]3[C@H](CO)N4CCCCN(C(=O)Nc5cccc(F)c5)C[C@@H]34)cc2)c1`, for which the activity change, negative = inhibition is 18.1% (inactive).
Turning to `CCCNC(=O)c1cc2c(c(-c3cccc(-c4cc5ccccc5o4)c3)n1)[C@H](CCO)N(C(=O)NC(C)C)C2`, the activity change, negative = inhibition is 4.19% (inactive).
With `COc1ccc(S(=O)(=O)N(C)C[C@@H]2Oc3ccc(NC(=O)Nc4ccc(C(F)(F)F)cc4)cc3C(=O)N([C@H](C)CO)C[C@H]2C)cc1`, the activity change, negative = inhibition is -10.6% (inactive).
On the same count and under the same terms, with `N#C[C@@H]1[C@@H](c2ccccc2-c2ccccc2)[C@@H](CO)N1C(=O)NC1CCCC1` the figure was 5.58% (inactive); with `Cc1ccccc1-c1ccc(C2[C@@H]3CN(C(=O)Nc4cccc(F)c4)C[C@H]2N3)cc1` (stereo partly drawn), 7.95% (inactive); with `COc1ccccc1C(=O)Nc1ccc2c(c1)C(=O)N(C)[C@H]1CC[C@H](CC(=O)Nc3cccc(C(C)C)c3)O[C@@H]1CO2`, 12.5% (inactive).
For `CC(C)NC(=O)N1CC(=O)N2[C@H](CO)[C@@H](c3ccc(/C=C/c4ccccc4)cc3)[C@H]2C1`, the activity change, negative = inhibition is 6.58% (inactive).

Still in this test, the particulars now being: B cell line, CD40 signaling inhibition reporter; at 10 µM (top of the series).
Consider `COc1ccc(S(=O)(=O)Nc2ccc3c(c2)C(=O)N([C@@H](C)CO)C[C@@H](C)[C@H](CN(C)Cc2ccc(C(F)(F)F)cc2)OCCCC[C@@H](C)O3)cc1`, for which the activity change, negative = inhibition is -0.502% (inactive).
On to `Cc1ccc2c(c1)C(O)(CC(=O)/C=C/C=C/c1ccccc1)C(=O)N2` (stereo not drawn), for which the activity change, negative = inhibition was -5.49% (inactive).
Still for that read-out and setting: with `CC(=O)Nc1nc2nc(-c3ccccc3)cc(-c3ccccc3)n2n1` the figure was 6.86% (inactive).
The same measure, in the same setting: with `CC12CN3CC(C)(CN(C1)C3c1ccc3c(c1)OCO3)C2=O` (stereo not drawn) the figure was 6.2% (inactive).
With `CC(=O)c1cc(-c2ccccc2)n(CC(=O)NCc2cccs2)c1C`, the activity change, negative = inhibition is -1.07% (inactive).
As for `CCSc1ccc(-c2cc(NC=O)c3ncc(-c4cccc(C(=O)N(C)C)c4)n3c2)cc1`, the activity change, negative = inhibition is 21.6% (inactive).
On the same count and under the same terms, as for `Cc1ccc(-c2nn3c(C)nnc3c3ccccc23)cc1S(=O)(=O)NCc1ccccc1`, the figure is 3.44% (inactive); as for `Cc1noc(C)c1S(=O)(=O)Nc1ccc2c(c1)C(=O)N([C@@H](C)CO)C[C@H](C)[C@@H](CN(C)C(=O)Nc1cccc3ccccc13)OCCCC[C@H](C)O2`, -10.1% (inactive).
Same read-out and setting: as for `C[C@@H]1CN([C@@H](C)CO)C(=O)c2ccccc2-c2ccccc2CO[C@@H]1CN(C)C(=O)c1cc(Cl)cc(Cl)c1`, the figure is -6.79% (inactive); as for `CC(C)(C)n1cc(C(=O)c2ccc3ccccc3c2O)cn1`, -16.1% (inactive); as for `CCCC(C)Sc1nc2c([nH]1)c(=S)n(C)c(=O)n2C` (stereo not drawn), -8.82% (inactive).
On the same count and under the same terms, with `CCc1cc2c(COC(=O)c3cc(S(=O)(=O)N4CCOCC4)ccc3F)cc(=O)oc2cc1O` the figure was 11.4% (inactive); with `N=C(N)c1ccc(OCCCCCOc2ccc(C(=N)N)cc2)cc1`, -0.281% (inactive); with `C=C1C(=O)OC2C=C(CO)CCC=C(CO)CC(OC(=O)C(C)C)C12` (stereo not drawn), 14% (inactive).
With `Cc1ccc(C(CC(=O)NCc2ccco2)c2ccc(OC(C)C)cc2)cc1` (stereo not drawn), the activity change, negative = inhibition was 3.92% (inactive).
Same read-out and setting: with `COc1ccc(S(=O)(=O)N(C)C[C@@H]2Oc3ccc(NC(=O)Nc4ccc(C(F)(F)F)cc4)cc3C(=O)N([C@@H](C)CO)C[C@@H]2C)cc1` the figure was 8.35% (inactive).
Consider `CC(=O)Nc1ccc(S(=O)(=O)c2ccc(N)cc2)cc1`, for which the activity change, negative = inhibition was 0.776% (inactive).
The same measure, in the same setting: as for `CCN(CC(=O)Nc1ccc(NC(C)=O)cc1)C(=O)C1CCCN(C(=O)c2ccc(Cl)cc2)C1` (stereo not drawn), the figure is 0.336% (inactive).
Turning to `O=C(CNCCO)N1N=C(c2cccs2)CC1c1cccs1` (stereo not drawn), the activity change, negative = inhibition is 12.3% (inactive).
The same measure, in the same setting: as for `COc1ccc(C(=O)/C=C/C(=O)N(CC(=O)NC2CCCCC2)Cc2ccc(F)cc2)c(O)c1`, the figure is -5.51% (inactive).
As for `CC(C)OC(=O)CC1C(=O)NCCN1C(=S)NC(=O)c1cccs1` (stereo not drawn), the activity change, negative = inhibition is 15.3% (inactive).
The same measure, in the same setting: with `O=C(Nc1ccccc1F)N1CCCCN2[C@H](CO)[C@H](c3ccc(/C=C/c4ccccc4)cc3)[C@H]2C1` the figure was -13.9% (inactive); with `Cc1ccc2nc(-c3cc(-c4ccccc4)no3)cn2c1`, 34.4% (inactive); with `COc1ccc(CN2CC3(CN(S(=O)(=O)c4ccc(C)cc4)C3)c3c([nH]c4cc(OC)ccc34)[C@H]2CO)cc1`, -1.27% (inactive).
With `Cc1ccc(C2(C)NC(=O)N(CC(=O)Nc3cccnc3Cl)C2=O)cc1` (stereo not drawn), the activity change, negative = inhibition was -2.81% (inactive).
Same read-out and setting: as for `Nc1cccc2nc3ccccc3cc12`, the figure is 22.5% (inactive).
Same read-out and setting: with `C[C@@H]1CN([C@@H](C)CO)C(=O)c2c(c3ccccc3n2C)-c2ccccc2CO[C@@H]1CN(C)Cc1ccccc1C(F)(F)F` the figure was 4.94% (inactive); with `NS(=O)(=O)c1nn2cc(-c3ccccc3)nc2s1`, -27.6% (inactive); with `OC(CCN1CCCCC1)c1ccc(-c2ccccc2)cc1` (stereo not drawn), 40.4% (inactive).
Same read-out and setting: as for `CCc1cc2c(=O)c(-c3ccc4c(c3)OCCO4)coc2c(CN2CCCCC2C)c1O` (stereo not drawn), the figure is 1.98% (inactive); as for `Fc1ccccc1/C=C1\CCCC2=C1Nc1nnnn1C2c1ccccc1F` (stereo not drawn), -1.53% (inactive).
In the case of `COc1cccc(S(=O)(=O)N(C)C[C@@H]2OCc3ccccc3-c3c(n(C)c4ccccc34)C(=O)N([C@@H](C)CO)C[C@@H]2C)c1`, the activity change, negative = inhibition was 8.02% (inactive).
As to `OC1(c2ccc(Cl)c(C(F)(F)F)c2)CCN(CCCC(c2ccc(F)cc2)c2ccc(F)cc2)CC1`, the activity change, negative = inhibition was 3.82% (inactive).
